Patent publication US9464064B2, “HCV helicase inhibitors and methods of use thereof” (University of Kansas, priority 2011, dated 2016)

Target: T1, HCV NS3 helicase NS3h_1b(con1) (Hepatitis C virus genotype 1b, UniProt Q9WMX2)
T1 construct: truncated C-terminally His-tagged NS3 proteins lacking the N-terminal protease, called NS3h; His-tag (C); made in house
Assay: MBHA screen of NCI mechanistic set library at 20 μM (percent inhibition, compound interference)
Type: biochemical
Conditions: compounds at 20 μM; for Inh. (%) (Inhibition): calculated from Equation 1
Procedure, shortened: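 Molecular beacon-based DNA unwinding assay; compounds screened at 20 μM in triplicate, with DMSO-only negative and 500 nM dT20 positive controls. Fluorescence (ex 643/em 670 nm) was read before and 30 min after adding ATP to 1 mM. Percent inhibition came from the change relative to DMSO controls; interference from pre-ATP fluorescence versus DMSO controls.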

[1] = MBHA with DNA substrate, assay interference calculated with Equation 2
[2] = assay interference calculated with Equation 2 (fluorescence vs DMSO-only controls before ATP)

T1 sequence (Q9WMX2 1192-1657): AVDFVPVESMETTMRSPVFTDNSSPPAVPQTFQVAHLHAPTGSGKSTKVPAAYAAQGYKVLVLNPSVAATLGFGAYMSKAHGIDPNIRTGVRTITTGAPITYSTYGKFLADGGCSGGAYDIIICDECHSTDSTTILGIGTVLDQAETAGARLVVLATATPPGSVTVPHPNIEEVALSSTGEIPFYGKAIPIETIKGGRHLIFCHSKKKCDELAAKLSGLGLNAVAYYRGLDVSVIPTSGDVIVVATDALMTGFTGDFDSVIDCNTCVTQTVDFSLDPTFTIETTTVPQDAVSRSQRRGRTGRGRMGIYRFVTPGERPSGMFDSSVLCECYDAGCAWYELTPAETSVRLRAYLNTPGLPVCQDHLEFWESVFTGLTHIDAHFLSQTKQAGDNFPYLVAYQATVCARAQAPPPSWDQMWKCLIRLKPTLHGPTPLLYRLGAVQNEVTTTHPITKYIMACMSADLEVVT

Row | SMILES | Int.* (Ratio) (Interference) [1] | Inh. (%) (Inhibition) (MBHA with DNA substrate) | Inh. (%) (Inhibition) (MBHA with a DNA substrate) | Int.* (Ratio) (Interference) [2]
1 | O=[N+]([O-])c1cc(C(F)(F)F)cc2n[se]nc12 [Compound 627371] | 0.92 | −10.1 | – | –
2 | O=C1c2ccccc2C(=O)c2nc(-c3ccccc3)c(-c3ccccc3)nc21 [Compound 629713] | – | – | −20.3 | 0.90
3 | O=C1c2ccccc2C(=O)c2sc(Nc3ccc(Cl)c(Cl)c3)nc21 [Compound 631521] | – | – | −22.6 | 0.93
4 | O=C1c2ccccc2C(=O)c2sc(Nc3ccc(Cl)cc3)nc21 [Compound 631529] | – | – | −28.9 | 1.06
5 | N#CC1=C(N)Oc2c(ccc3cccnc23)C1c1ccccc1 (stereo not shown) [Compound 631583] | 0.98 | 5.1 | – | –
6 | COc1ccc(Cc2nc3ccccc3s2)cc1OC [Compound 632233] | 1.04 | −2.7 | – | –
7 | CC1(C)CC(Nc2ccc(Nc3ccccc3)cc2)CC(C)(C)N1 [Compound 632536] | 0.84 | 20.7 | – | –
8 | Cc1ccc(/C=C2\CNC/C(=C\c3ccc(C)cc3)C2=O)cc1.Cl [Compound 632839] | 0.87 | 20.4 | – | –
9 | C=CC(=O)N1C/C(=C\c2ccccc2)C(=O)/C(=C/c2ccccc2)C1 [Compound 632841] | 0.81 | 15.6 | – | –
10 | O=[N+]([O-])c1ccccc1S(=O)(=O)c1ccccc1[N+](=O)[O-] [Compound 633001] | 0.89 | 23.2 | – | –
11 | O=C1C(c2cnc3ccccc3n2)=C(O)c2ccccc21 [Compound 634224] | 1.17 | 2.7 | – | –
12 | COC(=O)C1=CC(=O)C(C(=O)Nc2ccc(OC)cc2)C(c2ccccc2)O1 (stereo not shown) [Compound 634473] | 1.01 | 4.2 | – | –
13 | CCc1cccc(CC)c1NC(=O)C(C#N)C1=C(Cl)C(=O)c2ccccc2C1=O (stereo not shown) [Compound 634503] | – | – | −31.9 | 0.93
14 | Cn1c(=O)c2nc3sc4c(n3c2n(C)c1=O)C(=O)c1ccccc1C4=O [Compound 634568] | 0.90 | −14.8 | – | –
15 | CC(=O)/C(=C\c1cccc([N+](=O)[O-])c1)C(=O)Nc1ccccc1C [Compound 634658] | 0.85 | 15.7 | – | –
16 | O=S1(=O)OCCOS(=O)(=O)C1Cc1ccccc1 [Compound 634863] | 0.99 | −18.2 | – | –
17 | C/C(NNC(=O)c1ccccc1O)=C1\C=Nc2ccccc2S1 [Compound 635121] | 0.92 | 14.5 | – | –
18 | O=C(c1ccccc1)C1OC12C(=O)Nc1c(Cl)cc(Cl)cc12 (stereo not shown) [Compound 635306] | – | – | −6.8 | 0.96
19 | O=C(c1ccccc1)C(c1ccccc1)C1(O)C(=O)Nc2c(Cl)cc(Cl)cc21 (stereo not shown) [Compound 635312] | 0.93 | −18.1 | – | –
20 | O=C(CC1(O)C(=O)Nc2c(Cl)cc(Cl)cc21)c1ccc([N+](=O)[O-])cc1 (stereo not shown) [Compound 635326] | 1.11 | 5.9 | – | –
21 | O=C(CC1(O)C(=O)Nc2c(Cl)cc(Cl)cc21)c1cccc2ccccc12 (stereo not shown) [Compound 635328] | 0.99 | 2.5 | – | –
22 | Cc1cc(Cl)cc2c1NC(=O)C2(O)C(C(=O)c1ccccc1)c1ccccc1 (stereo not shown) [Compound 635435] | – | – | 6.9 | 0.96
23 | O=C(CC1(O)C(=O)Nc2c(Cl)ccc(Cl)c21)c1ccc(Cl)cc1Cl (stereo not shown) [Compound 635436] | 0.89 | 15.6 | – | –
24 | O=C(CC1(O)C(=O)Nc2c(Cl)ccc(Cl)c21)c1ccc(Cl)cc1 (stereo not shown) [Compound 635437] | 0.92 | 0.1 | – | –
25 | Cc1ccccc1OCC(COC(=O)Nc1ccccc1)OC(=O)Nc1ccccc1 (stereo not shown) [Compound 635824] | 0.91 | 13.5 | – | –
26 | CC1=NC(C(C)C)C(=O)O1 (stereo not shown) [Compound 635968] | – | – | 9.0 | 0.97
27 | COc1ccc(C2=Nc3ccccc3SC(C)C2)cc1 (stereo not shown) [Compound 636817] | – | – | −30.3 | 1.07

Second part, the compound after the results:

Row | Int.* (Ratio) (Interference) [1] | Inh. (%) (Inhibition) (MBHA with DNA substrate) | Inh. (%) (Inhibition) (MBHA with a DNA substrate) | Int.* (Ratio) (Interference) [2] | SMILES
28 | 0.53 | 64.3 | – | – | COc1ccc2c(c1)-c1nn(CCCN(C)C)c3ccc([N+](=O)[O-])c(c13)N2 [Compound 627168]
29 | – | – | −3.6 | 0.87 | COc1cc2c3c(c1OC)-c1cc4c(cc1CC3(C#N)N(C(=O)c1ccccc1)CC2)OCO4 (stereo not shown) [Compound 627666]
30 | 1.03 | −11.4 | – | – | Cc1ccc(S(=O)(=O)c2ccccc2[N+](=O)[O-])cc1 [Compound 627708]
31 | 0.91 | 0.8 | – | – | N#CC1(C#N)C2C=CC(c3coc4cccc2c34)C1(C#N)C#N (stereo not shown) [Compound 629301]
32 | 0.97 | 5.9 | – | – | O=C(NCCCCCCCCNC(=O)c1cccc2ccccc12)c1cccc2ccccc12 [Compound 629738]
33 | – | – | −20.4 | 0.96 | CC[C@@]1(O)C(=O)OCc2c1cc1n(c2=O)Cc2cc3c(N)cccc3nc2-1 [Compound 629971]
34 | 0.89 | 1.3 | – | – | O=C(CCc1ccccc1)On1nnc2ccccc2c1=O [Compound 630374]
35 | 0.94 | −7.3 | – | – | Cn1cnc([N+](=O)[O-])c1Sc1nnnn1-c1ccccc1 [Compound 631152]
36 | – | – | 9.9 | 0.91 | Cn1cnc([N+](=O)[O-])c1Sc1nnc(-c2cccnc2)n1C [Compound 631160]
37 | – | – | 9.9 | 0.87 | O=C(NC(=O)c1c(Cl)nc2sccn12)Nc1ccc(Cl)cc1 [Compound 633209]
38 | 0.99 | −17.6 | – | – | Cc1c(Cl)cccc1NC(=O)CC1Sc2ccccc2NC1=O (stereo not shown) [Compound 634396]
39 | 1.06 | 2.3 | – | – | CCOC(=O)CCn1ncc(Cl)c(Cl)c1=O [Compound 634471]
40 | – | – | −4.4 | 1.12 | O=C1C=CC(CC(=O)c2ccc3ccccc3c2)O1 (stereo not shown) [Compound 634650]
41 | 0.92 | −14.5 | – | – | [O-][S+]1c2ccccc2N=C(c2cccc3ccccc23)CC1c1cccc2ccccc12 (stereo not shown) [Compound 634926]
42 | – | – | 6.8 | 0.97 | CC1=C(C(=O)NCc2ccccc2)C(c2ccccc2O)C(C(=O)NCc2ccccc2)=C(C)N1 [Compound 634928]
43 | 1.04 | 4.6 | – | – | COC(=O)c1[nH]c(=S)[nH]c(=O)c1-c1ccc(Cl)cc1 [Compound 635140]
44 | 1.01 | 5.1 | – | – | Cc1c(Cl)ccc2c1NC(=O)C2(O)C(C(=O)c1ccccc1)c1ccccc1 (stereo not shown) [Compound 635321]
45 | 1.05 | 25.5 | – | – | CN1CCN(CCSC2Cc3cc(Cl)ccc3Sc3ccccc32)CC1 (stereo not shown) [Compound 635366]
46 | – | – | −23.8 | 1.02 | O=C(CC1(O)C(=O)Nc2c(Cl)cc(Cl)cc21)c1cccc([N+](=O)[O-])c1 (stereo not shown) [Compound 635438]
47 | 0.92 | 16.7 | – | – | CC(=O)/C(C)=N/NC(=O)c1ccccc1O [Compound 635441]
48 | 0.93 | 0.8 | – | – | C/C(=N\NC(=S)N(C)C)c1ccccn1.[Cu][Br] [Compound 635448]
49 | 0.91 | −12.7 | – | – | Cc1c(C(=O)C/C(=N/NC(=O)CC#N)C(N)=O)[n+](=O)c2ccccc2n1[O-] [Compound 635542]
50 | – | – | −21.9 | 0.82 | Cc1c(C(=O)C/C(=N\O)C(=O)Nc2cc(Cl)c(Cl)cc2Cl)[n+](=O)c2ccccc2n1[O-] [Compound 635544]
51 | – | – | −6.8 | 0.92 | O=[N+]([O-])c1cc(-c2nc(=S)[nH][nH]2)ccc1O [Compound 635563]
52 | 0.93 | −7.3 | – | – | COC(=O)C(=O)C(C(=O)Nc1cccc(C)c1C)C1Sc2ccccc2NC1=O (stereo not shown) [Compound 635833]
53 | 0.97 | −2.4 | – | – | CC(C)(C)c1ccc(OC2CCO2)cc1 (stereo not shown) [Compound 635975]
54 | 1.01 | −8.2 | – | – | CC1CCCC(C(=O)/C(=C/c2cccc(Cl)c2)C(=O)C(=O)O)C1 (stereo not shown) [Compound 636084]
55 | 0.90 | 4.4 | – | – | Cc1ccccc1NC(=O)C(=O)C(C#N)c1ccccc1C (stereo not shown) [Compound 636132]
56 | – | – | 8.8 | 0.91 | O=C(/C=C/c1c(O)ccc2ccccc12)c1cccc(O)c1 [Compound 636786]
